Results reported in patent US11117901B2, “Substituted pyrazolo[4,3-h]quinazolines as choline kinase inhibitors” (NERVIANO MEDICAL SCIENCES S.R.L., priority 2017, dated 2021).
Where two headings read alike, the source gives them in different places.

Experiments:
[1] = biological target: T1, Δ49N-hChoKα (Homo sapiens, UniProt P35790); experiment: Biochemical kinase inhibition assay (Kinase-Glo luminescent) on Δ49N-hChoKα; conditions: ATP 5 μM, choline 5 μM, 60 min rt
T1 construct: cDNA fragment 362-1534, corresponding to aminoacids 50 457; GST (N, cleaved yes); PreScission Protease recognition site (N); made in house; host or cells: Escherichia coli BL21pLysS (DE3)
T1 sequence (P35790 50-439 isoform P35790-2): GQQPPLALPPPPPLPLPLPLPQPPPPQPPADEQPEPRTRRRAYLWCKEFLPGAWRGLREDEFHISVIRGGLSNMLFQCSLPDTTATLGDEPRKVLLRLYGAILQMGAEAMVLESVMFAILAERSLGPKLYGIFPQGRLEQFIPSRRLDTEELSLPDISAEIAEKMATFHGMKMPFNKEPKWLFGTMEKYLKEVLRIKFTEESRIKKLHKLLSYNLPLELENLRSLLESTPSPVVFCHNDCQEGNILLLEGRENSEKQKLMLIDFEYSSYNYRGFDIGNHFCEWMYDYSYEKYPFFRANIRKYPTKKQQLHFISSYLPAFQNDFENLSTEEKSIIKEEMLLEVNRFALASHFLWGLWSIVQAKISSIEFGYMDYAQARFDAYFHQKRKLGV
Method: (§1) HumanΔ49ChoKα ([…]Δ49N-hChoKα) cDNA fragment 362-1534, corresponding to aminoacids 50 457 (J. Mol. Biol. 2006, 364, 136-151), and hChoKβ full length (FL), corresponding to aminoacids 2-395 ((PLoS ONE 2009, 4, e7819), were amplified by PCR from human library and cloned, inserting upstream a Prescission Protease recognition site, in pDonor 221 vector, using the Gateway Technology® (Invitrogen). After sequence control, LR reaction was performed in the final expression pGEX 2Tg vector. Both the proteins were expressed in Escherichia coli BL21pLysS (DE3) strain in auto-induction (Kessler) medium in the presence of […] carbenicillin at 25° C. for 16 h. Cells were harvested by centrifugation, the pellet was re-suspended in Lysis buffer (50 mM Tris-HCl pH 7.8, 150 mM NaCl, 10% glycerol, 0.2% CHAPS, 20 mM DTT, Protease Inhibitor Cocktail Tablets from Roche Biochemicals) and lysed by Gaulin homogenizer (Niro Soavi). The lysate was cleared by centrifugation. The supernatant was added to GSH resin and let flow by gravity. The GSH resin was washed with 5 column volume (CV) of cold wash buffer (50 mM Tris-HCl pH 7.8, 150 mM NaCl, 10% glycerol), then with 10 CV of the same buffer containing 2 mM of DTT. Both GST-Δ49N-hChoKα and hChoKβ were subjected to on-column cleavage of the GST tag with Prescission Protease overnight. The eluted cleaved proteins were further purified by ion exchange (ResQ 6 mL chromatography column from GE healthcare) with a gradient from 50 to 500 mM NaCl in 30 CV. The fractions containing […]Δ49N-hChoKα or hChoKβ were pooled, concentrated and gel filtered on a Superdex200 16/60 (GE Healthcare). The final protein concentration was estimated using the Bradford assay. All the samples purified were resolved by SDS-PAGE.
(§2) Biochemical Kinase inhibition Assay on Δ49N-hChoKα and hChoKβFL
(§3) The biochemical activity of compounds against Δ49N-ChoKα and ChoK3 FL were determined using the Kinase-Glo™ Luminescent Kinase Assay (Promega cat. V6711). The assay is based on incubation of the recombinant Δ49N-hChoKα and hChoKβ FL produced in house, 2.2 nM and 30 nM, respectively, with the specific substrates, choline (Sigma-Aldrich-C7017) and ATP, followed by quantification, at the end of reaction time, of the residual not reacted ATP.
(§4) Compounds were 3-fold serially diluted from 10 to 0.0005 μM, then incubated for 60 minutes at room temperature in the presence of ATP 5 μM, choline (5 μM for ChoKα and 20 μM for ChoKβ) and enzyme in a final volume of 19 μL of kinase buffer (50 mM Hepes pH 7.5, 10 mM MgCl2, 1 mM DTT, 3 μM Na3VO4 and 0.2 mg/mL BSA). The final concentration of DMSO was 1%. The assay was run in a robotized format on 384-well plates (Perkin Elmer cat. #6005301).
(§5) At the end of the incubation, an amount of 19 μL of KinaseGlo Reagent was added to each well to stop the reaction and after 30 minutes the luminescence signal was measured using ViewLux reader (Perkin Elmer).
(§6) All information about plate dilution, distribution and raw data of inhibition are tracked via barcode reading and stored in an Oracle DB. The data per each molecule are analyzed by an internally customized version of the SW package “Assay Explorer” which provides sigmoidal fittings of the ten-dilution curves for IC50 determination using a 4 parameter logistic equation: y=bottom+(top−bottom)/(1+10^((log IC50−x)*slope)) where x is the logarithm of the inhibitor concentration, y is the response; y starts at bottom and goes to top with a sigmoid shape.

[2] = biological target: T2, hChoKβ FL (Homo sapiens, UniProt Q9Y259); experiment: Biochemical kinase inhibition assay (Kinase-Glo luminescent) on hChoKβ FL; conditions: ATP 5 μM, choline 20 μM, 60 min rt
T2 construct: hChoKβ full length (FL), corresponding to aminoacids 2-395; GST (N, cleaved yes); PreScission Protease recognition site (N); made in house; host or cells: Escherichia coli BL21pLysS (DE3)
T2 sequence (Q9Y259 2-395): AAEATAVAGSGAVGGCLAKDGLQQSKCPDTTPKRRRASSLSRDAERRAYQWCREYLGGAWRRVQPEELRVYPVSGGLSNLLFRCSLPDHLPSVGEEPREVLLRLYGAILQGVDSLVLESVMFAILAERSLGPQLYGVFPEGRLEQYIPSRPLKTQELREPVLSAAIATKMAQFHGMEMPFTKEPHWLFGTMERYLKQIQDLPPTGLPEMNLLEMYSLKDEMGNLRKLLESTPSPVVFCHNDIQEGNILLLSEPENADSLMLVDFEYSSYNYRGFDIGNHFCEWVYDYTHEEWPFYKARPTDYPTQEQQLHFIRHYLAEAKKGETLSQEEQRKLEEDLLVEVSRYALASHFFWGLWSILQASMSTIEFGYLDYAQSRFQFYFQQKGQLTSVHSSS
Method: as §1, §2, §3, §4, §5, §6

[3] = recombinant Δ49N-hChoKα 2.2 nM, read-out: ChoKα IC50
[4] = recombinant hChoKβ FL 30 nM, read-out: ChoKβ IC50

SMILES | IC50 [1, 3] [nM] | IC50 [2, 4] [nM] | IC50 ([1]; ChoKα IC50, recombinant Δ49N-hChoKα 2.2 nM) [nM] | IC50 ([2]; ChoKβ IC50, recombinant hChoKβ FL 30 nM) [nM]
CNC(=O)c1ccc(NC(=O)c2n[nH]c3c2C(C)(C)Cc2cnc(N)nc2-3)cc1 [compound 27] | 267 | 444 |  | 
Cc1cnc(NC(=O)c2n[nH]c3c2C(C)(C)Cc2cnc(N)nc2-3)s1 [compound 65] | 139 | 1610 |  | 
CC(C)(C)OC(=O)NC1CCN(Cc2ccc(NC(=O)c3n[nH]c4c3C(C)(C)Cc3cnc(N)nc3-4)cc2)CC1 [compound 133] | 536 | 1440 |  | 
CC1CCN(C2CCN(Cc3cccc(NC(=O)c4n[nH]c5c4C(C)(C)Cc4cnc(N)nc4-5)c3)CC2)CC1 [compound 112] | 187 | 2130 |  | 
CC1CCN(C2CCN(C(=O)c3ccc4nc(NC(=O)c5n[nH]c6c5C(C)(C)Cc5cnc(N)nc5-6)sc4c3)CC2)CC1 [compound 228] | 9 | 963 |  | 
CN(C)[C@@H]1CCN(Cc2csc(NC(=O)c3nn(C)c4c3C(C)(C)Cc3cnc(N)nc3-4)n2)C1 [compound 147] | 594 | > 10000 |  | 
CN1CCc2nc(NC(=O)c3n[nH]c4c3C(C)(C)Cc3cnc(N)nc3-4)sc2C1 [compound 151] | 174 | 5340 |  | 
CN1CCC(NC(=O)Cc2csc(NC(=O)c3n[nH]c4c3C(C)(C)Cc3cnc(N)nc3-4)n2)CC1 [compound 86] | 57 | 1390 |  | 
CC1(C)Cc2cnc(N)nc2-c2[nH]nc(C(=O)Nc3nc(COC4CCN(C5CCCCC5)CC4)cs3)c21 [compound 157] | 6 | 292 |  | 
CN1CCC(NC(=O)c2ccc(NC(=O)c3nn(CCCO)c4c3C(C)(C)Cc3cnc(N)nc3-4)cc2)CC1 [compound 9] | 693 | 5390 |  | 
CC1(C)Cc2cnc(N)nc2-c2[nH]nc(C(=O)Nc3nc(CN4CCC(N5CCCCC5)CC4)cs3)c21 [compound 143] | 142 | 2160 |  | 
CN1CCN(C2CCN(C(=O)c3ccc(NC(=O)c4n[nH]c5c4C(C)(C)Cc4cnc(N)nc4-5)cc3)CC2)CC1 [compound 41] | 70 | 471 |  | 
CC1(C)Cc2cnc(N)nc2-c2[nH]nc(C(=O)Nc3nc(C(=O)N4CCC(N5CCCCC5)CC4)cs3)c21 [compound 70] | 35 | 1080 |  | 
CN(C)C1CCN(C(=O)Cc2cccc(NC(=O)c3n[nH]c4c3C(C)(C)Cc3cnc(N)nc3-4)c2)CC1 [compound 146] | 65 | 551 |  | 
CC1(C)Cc2cnc(N)nc2-c2[nH]nc(C(=O)Nc3nc(CC(=O)N4CCC(=O)CC4)cs3)c21 [compound 45] |  |  | 121 | > 10000
CCOC(=O)c1cnc(NC(=O)c2n[nH]c3c2C(C)(C)Cc2cnc(N)nc2-3)s1 [compound 81] | 428 | 5340 |  | 
CC1CCN(C2CCN(C(=O)c3ccc(NC(=O)c4n[nH]c5c4C(C)(C)Cc4cnc(N)nc4-5)cc3)CC2)CC1 [compound 52] | 3 | 70 |  | 
CN1CCC(NC(=O)Cc2cnc(NC(=O)c3n[nH]c4c3C(C)(C)Cc3cnc(N)nc3-4)s2)CC1 [compound 74] | 79 | 1350 |  | 
Cn1nc(C(=O)Nc2nc(CN3CCC(N4CCCCC4)CC3)cs2)c2c1-c1nc(N)ncc1CC2(C)C [compound 141] | 622 | > 10000 |  | 
CC1(C)Cc2cnc(N)nc2-c2[nH]nc(C(=O)Nc3nc(CC(=O)N4CCC(N5CCCC5)CC4)cs3)c21 [compound 37] | 3 | 69 |  | 
CN(C)C1CCN(C(=O)c2ccc(NC(=O)c3n[nH]c4c3C(C)(C)Cc3cnc(N)nc3-4)cc2)CC1 [compound 14] | 198 | 37 |  | 
